Measurements published in article PMC11397024, “Strategic Fluorination to Achieve a Potent, Selective, Metabolically Stable, and Orally Bioavailable Inhibitor of CSNK2” (Molecules, 2024).

Tests used:
Assay in all cases: NanoBRET K192
Type in all cases: cell-based
CAMK2A = biological target: T1, CAMK2A (Homo sapiens, UniProt Q9UQM7); details: HEK293
T1 construct: purchased Promega (NanoBRET Target Engagement K192 Kinase Selectivity System)
Method in brief: (§1)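 HEK293 cells were transfected overnight with NanoLuc–kinase fusion vectors, then treated for 2 h at 37 °C with compound (added as 100 μM working solution) plus K10 tracer. BRET was read at 450/610 nm after substrate and extracellular inhibitor, and fractional occupancy was calculated against no-compound controls.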

CDK15 + Y = biological target: T2, CDK15 + Y (Homo sapiens, UniProt Q96Q40); details: HEK293
T2 construct: purchased Promega (NanoBRET Target Engagement K192 Kinase Selectivity System)
Method in brief: as §1

CDK17 + Y = biological target: T3, CDK17 + Y (Homo sapiens, UniProt Q00537); details: HEK293
T3 construct: purchased Promega (NanoBRET Target Engagement K192 Kinase Selectivity System)
Method in brief: as §1

CHEK2 = biological target: T4, CHEK2 (Homo sapiens, UniProt O96017); details: HEK293
T4 construct: purchased Promega (NanoBRET Target Engagement K192 Kinase Selectivity System)
Method in brief: as §1

CSNK1D = biological target: T5, CSNK1D (Homo sapiens, UniProt P48730); details: HEK293
T5 construct: purchased Promega (NanoBRET Target Engagement K192 Kinase Selectivity System)
Method in brief: as §1

FER = biological target: T6, FER (Homo sapiens, UniProt P16591); details: HEK293
T6 construct: purchased Promega (NanoBRET Target Engagement K192 Kinase Selectivity System)
Method in brief: as §1

FGFR3 = biological target: T7, FGFR3 (Homo sapiens, UniProt P22607); details: HEK293
T7 construct: purchased Promega (NanoBRET Target Engagement K192 Kinase Selectivity System)
Method in brief: as §1

FGFR4 = biological target: T8, FGFR4 (Homo sapiens, UniProt P22455); details: HEK293
T8 construct: purchased Promega (NanoBRET Target Engagement K192 Kinase Selectivity System)
Method in brief: as §1

FLT3 = biological target: T9, FLT3 (Homo sapiens, UniProt P36888); details: HEK293
T9 construct: host or cells: HEK293
Method in brief: as §1

HIPK2 = biological target: T10, HIPK2 (Homo sapiens, UniProt Q9H2X6); details: HEK293
T10 construct: purchased Promega (NanoBRET Target Engagement K192 Kinase Selectivity System)
Method in brief: as §1

ICK = biological target: T11, ICK (Homo sapiens, UniProt Q9UPZ9); details: HEK293
T11 construct: host or cells: HEK293
Method in brief: as §1

JNK3 = biological target: T12, JNK3 (Homo sapiens, UniProt P53779); details: HEK293
T12 construct: purchased Promega (NanoBRET Target Engagement K192 Kinase Selectivity System)
Method in brief: as §1

LTK = biological target: T13, LTK (Homo sapiens, UniProt P29376); details: HEK293
T13 construct: purchased Promega (NanoBRET Target Engagement K192 Kinase Selectivity System)
Method in brief: as §1

MAP3K2 = biological target: T14, MAP3K2 (Homo sapiens, UniProt Q9Y2U5); details: HEK293
T14 construct: purchased Promega (NanoBRET Target Engagement K192 Kinase Selectivity System)
Method in brief: as §1

MAPK8 = biological target: T15, MAPK8 (Homo sapiens, UniProt P45983); details: HEK293
T15 construct: purchased Promega (NanoBRET Target Engagement K192 Kinase Selectivity System)
Method in brief: as §1

MKNK2 = biological target: T16, MKNK2 (Homo sapiens, UniProt Q9HBH9); details: HEK293
T16 construct: purchased Promega (NanoBRET Target Engagement K192 Kinase Selectivity System)
Method in brief: as §1

MYLK3 = biological target: T17, MYLK3 (Homo sapiens, UniProt Q32MK0); details: HEK293
T17 construct: purchased Promega (NanoBRET Target Engagement K192 Kinase Selectivity System)
Method in brief: as §1

NEK4 = biological target: T18, NEK4 (Homo sapiens, UniProt P51957); details: HEK293
T18 construct: purchased Promega (NanoBRET Target Engagement K192 Kinase Selectivity System)
Method in brief: as §1

NEK9 = biological target: T19, NEK9 (Homo sapiens, UniProt Q8TD19); details: HEK293
T19 construct: purchased Promega (NanoBRET Target Engagement K192 Kinase Selectivity System)
Method in brief: as §1

NTRK1v1 = biological target: T20, NTRK1v1 (Homo sapiens, UniProt P04629); details: HEK293
T20 construct: purchased Promega (NanoBRET Target Engagement K192 Kinase Selectivity System)
Method in brief: as §1

NTRK2 = biological target: T21, NTRK2 (Homo sapiens, UniProt Q16620); details: HEK293
T21 construct: purchased Promega (NanoBRET Target Engagement K192 Kinase Selectivity System)
Method in brief: as §1

NUAK1 = biological target: T22, NUAK1 (Homo sapiens, UniProt O60285); details: HEK293
T22 construct: purchased Promega (NanoBRET Target Engagement K192 Kinase Selectivity System)
Method in brief: as §1

PHKG1 = biological target: T23, PHKG1 (Homo sapiens, UniProt Q16816)
T23 construct: purchased Promega (NanoBRET Target Engagement K192 Kinase Selectivity System)
Method in brief: as §1

PRKAA1 = biological target: T24, PRKAA1 (Homo sapiens, UniProt Q13131); details: HEK293
T24 construct: purchased Promega (NanoBRET Target Engagement K192 Kinase Selectivity System)
Method in brief: as §1

SGK1 = biological target: T25, SGK1 (Homo sapiens, UniProt O00141); details: HEK293
T25 construct: purchased Promega (NanoBRET Target Engagement K192 Kinase Selectivity System)
Method in brief: as §1

SIK1 = biological target: T26, SIK1 (Homo sapiens, UniProt P57059); details: HEK293
T26 construct: purchased Promega (NanoBRET Target Engagement K192 Kinase Selectivity System)
Method in brief: as §1

SIK3 = biological target: T27, SIK3 (Homo sapiens, UniProt Q9Y2K2); details: HEK293
T27 construct: purchased Promega (NanoBRET Target Engagement K192 Kinase Selectivity System)
Method in brief: as §1

TNK2 = biological target: T28, TNK2 (Homo sapiens, UniProt Q07912); details: HEK293
T28 construct: purchased Promega (NanoBRET Target Engagement K192 Kinase Selectivity System)
Method in brief: as §1

T23 sequence (Q16816 whole entry): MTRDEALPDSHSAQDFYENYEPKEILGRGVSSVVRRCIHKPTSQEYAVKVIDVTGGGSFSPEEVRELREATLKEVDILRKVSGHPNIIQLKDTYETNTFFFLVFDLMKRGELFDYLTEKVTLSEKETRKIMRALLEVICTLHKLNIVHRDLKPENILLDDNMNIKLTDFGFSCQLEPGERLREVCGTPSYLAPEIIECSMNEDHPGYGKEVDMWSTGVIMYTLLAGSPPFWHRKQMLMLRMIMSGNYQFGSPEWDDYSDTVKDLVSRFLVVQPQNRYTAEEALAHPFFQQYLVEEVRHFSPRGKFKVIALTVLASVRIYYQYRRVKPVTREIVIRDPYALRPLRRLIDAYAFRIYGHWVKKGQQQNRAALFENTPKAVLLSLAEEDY
T6 sequence (P16591 whole entry): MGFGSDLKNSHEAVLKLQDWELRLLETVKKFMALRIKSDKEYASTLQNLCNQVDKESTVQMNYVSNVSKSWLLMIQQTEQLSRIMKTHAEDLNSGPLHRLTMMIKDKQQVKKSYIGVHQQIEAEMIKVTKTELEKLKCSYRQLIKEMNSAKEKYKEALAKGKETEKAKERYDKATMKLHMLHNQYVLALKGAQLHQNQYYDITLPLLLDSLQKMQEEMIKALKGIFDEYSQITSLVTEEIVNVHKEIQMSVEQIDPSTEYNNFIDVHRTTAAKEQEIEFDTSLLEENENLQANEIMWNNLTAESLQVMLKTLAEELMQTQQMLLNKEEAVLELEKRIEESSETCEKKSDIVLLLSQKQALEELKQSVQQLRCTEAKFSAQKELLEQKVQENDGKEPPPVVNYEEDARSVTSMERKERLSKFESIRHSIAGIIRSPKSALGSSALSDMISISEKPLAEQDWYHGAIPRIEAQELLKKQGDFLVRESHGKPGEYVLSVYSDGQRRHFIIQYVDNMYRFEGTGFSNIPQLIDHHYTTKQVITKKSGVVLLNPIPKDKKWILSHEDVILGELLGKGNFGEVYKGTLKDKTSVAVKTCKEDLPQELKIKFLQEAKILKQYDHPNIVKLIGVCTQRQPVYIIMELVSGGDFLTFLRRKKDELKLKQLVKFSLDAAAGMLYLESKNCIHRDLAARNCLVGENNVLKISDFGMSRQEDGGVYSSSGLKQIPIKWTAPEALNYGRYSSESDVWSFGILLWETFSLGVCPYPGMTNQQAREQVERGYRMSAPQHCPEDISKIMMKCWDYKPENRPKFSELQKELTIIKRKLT
T4 sequence (O96017 whole entry): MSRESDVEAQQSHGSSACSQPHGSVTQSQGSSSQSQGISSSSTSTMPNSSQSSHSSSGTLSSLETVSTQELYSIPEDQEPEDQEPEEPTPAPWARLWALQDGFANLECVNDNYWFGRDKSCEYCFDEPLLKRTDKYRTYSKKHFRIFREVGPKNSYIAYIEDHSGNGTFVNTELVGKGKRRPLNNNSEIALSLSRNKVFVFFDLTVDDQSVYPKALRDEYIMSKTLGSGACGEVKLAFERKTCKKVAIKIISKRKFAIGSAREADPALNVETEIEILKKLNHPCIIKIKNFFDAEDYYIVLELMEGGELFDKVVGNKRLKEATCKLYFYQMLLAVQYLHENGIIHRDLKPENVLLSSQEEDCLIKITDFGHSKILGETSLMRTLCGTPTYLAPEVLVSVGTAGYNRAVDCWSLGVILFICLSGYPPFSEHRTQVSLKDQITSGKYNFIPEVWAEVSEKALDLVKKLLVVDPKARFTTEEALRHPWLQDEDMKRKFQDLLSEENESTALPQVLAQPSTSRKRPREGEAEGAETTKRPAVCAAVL
T14 sequence (Q9Y2U5 whole entry): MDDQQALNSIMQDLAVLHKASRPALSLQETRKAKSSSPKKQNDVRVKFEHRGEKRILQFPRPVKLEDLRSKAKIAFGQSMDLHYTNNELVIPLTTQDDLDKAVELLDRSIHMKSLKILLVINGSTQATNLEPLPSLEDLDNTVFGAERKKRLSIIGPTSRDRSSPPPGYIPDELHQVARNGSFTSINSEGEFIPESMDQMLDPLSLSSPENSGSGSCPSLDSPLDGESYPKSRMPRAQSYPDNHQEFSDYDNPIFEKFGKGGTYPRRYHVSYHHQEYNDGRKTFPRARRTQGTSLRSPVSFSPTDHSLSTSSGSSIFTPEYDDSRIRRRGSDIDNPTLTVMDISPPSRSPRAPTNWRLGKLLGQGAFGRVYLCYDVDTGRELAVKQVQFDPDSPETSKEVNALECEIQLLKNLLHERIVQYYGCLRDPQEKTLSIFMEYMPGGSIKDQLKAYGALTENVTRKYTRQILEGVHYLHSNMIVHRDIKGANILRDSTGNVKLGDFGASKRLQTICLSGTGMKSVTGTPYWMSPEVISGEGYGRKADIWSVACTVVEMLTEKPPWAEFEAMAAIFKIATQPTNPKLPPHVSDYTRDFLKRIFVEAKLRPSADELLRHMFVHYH
T19 sequence (Q8TD19 whole entry): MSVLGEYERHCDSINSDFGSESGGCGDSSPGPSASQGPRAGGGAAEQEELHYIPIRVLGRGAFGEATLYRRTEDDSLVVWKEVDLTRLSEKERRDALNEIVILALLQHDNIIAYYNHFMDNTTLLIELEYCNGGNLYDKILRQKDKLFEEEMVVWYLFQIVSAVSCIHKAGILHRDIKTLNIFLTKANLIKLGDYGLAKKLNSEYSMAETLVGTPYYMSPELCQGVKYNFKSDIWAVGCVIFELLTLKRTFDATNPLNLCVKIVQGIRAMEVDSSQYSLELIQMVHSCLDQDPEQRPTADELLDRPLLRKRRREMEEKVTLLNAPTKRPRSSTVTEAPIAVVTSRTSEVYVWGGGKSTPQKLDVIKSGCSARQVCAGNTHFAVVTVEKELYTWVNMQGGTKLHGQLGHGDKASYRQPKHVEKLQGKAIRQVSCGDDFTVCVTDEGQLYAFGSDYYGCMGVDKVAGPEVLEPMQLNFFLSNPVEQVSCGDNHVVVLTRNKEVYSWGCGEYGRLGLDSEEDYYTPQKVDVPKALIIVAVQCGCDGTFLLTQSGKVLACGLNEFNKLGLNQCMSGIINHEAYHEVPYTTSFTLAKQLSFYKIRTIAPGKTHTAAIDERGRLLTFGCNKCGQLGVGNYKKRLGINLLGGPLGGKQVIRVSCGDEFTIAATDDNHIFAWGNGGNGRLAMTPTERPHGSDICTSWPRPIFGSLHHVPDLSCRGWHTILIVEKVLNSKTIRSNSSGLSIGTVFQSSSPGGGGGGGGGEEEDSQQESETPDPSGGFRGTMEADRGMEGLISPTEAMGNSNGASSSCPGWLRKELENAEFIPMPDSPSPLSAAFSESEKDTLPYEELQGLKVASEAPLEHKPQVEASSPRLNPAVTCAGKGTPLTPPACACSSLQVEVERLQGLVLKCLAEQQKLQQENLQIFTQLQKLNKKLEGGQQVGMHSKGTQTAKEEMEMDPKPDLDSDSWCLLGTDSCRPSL
T13 sequence (P29376 17-864): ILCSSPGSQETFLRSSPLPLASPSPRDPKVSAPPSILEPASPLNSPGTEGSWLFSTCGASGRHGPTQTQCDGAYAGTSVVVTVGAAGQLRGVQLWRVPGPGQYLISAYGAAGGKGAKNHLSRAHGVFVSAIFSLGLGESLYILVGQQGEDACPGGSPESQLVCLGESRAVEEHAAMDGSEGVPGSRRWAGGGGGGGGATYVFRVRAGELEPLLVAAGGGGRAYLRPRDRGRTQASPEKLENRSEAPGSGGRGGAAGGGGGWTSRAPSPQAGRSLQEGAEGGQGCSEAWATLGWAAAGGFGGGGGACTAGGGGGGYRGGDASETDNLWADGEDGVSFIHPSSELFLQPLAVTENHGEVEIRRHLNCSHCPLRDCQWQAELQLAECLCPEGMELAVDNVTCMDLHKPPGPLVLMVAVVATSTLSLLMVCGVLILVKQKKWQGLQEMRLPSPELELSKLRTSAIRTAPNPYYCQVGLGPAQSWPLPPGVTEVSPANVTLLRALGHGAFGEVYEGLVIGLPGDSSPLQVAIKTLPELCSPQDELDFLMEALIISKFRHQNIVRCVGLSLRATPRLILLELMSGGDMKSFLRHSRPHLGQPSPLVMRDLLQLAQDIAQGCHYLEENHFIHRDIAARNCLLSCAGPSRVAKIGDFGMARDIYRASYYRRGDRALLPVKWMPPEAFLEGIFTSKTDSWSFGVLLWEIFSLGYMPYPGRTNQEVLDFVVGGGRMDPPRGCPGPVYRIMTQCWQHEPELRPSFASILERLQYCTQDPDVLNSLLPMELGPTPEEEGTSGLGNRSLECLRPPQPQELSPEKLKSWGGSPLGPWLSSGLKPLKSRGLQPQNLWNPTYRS
T5 sequence (P48730 whole entry): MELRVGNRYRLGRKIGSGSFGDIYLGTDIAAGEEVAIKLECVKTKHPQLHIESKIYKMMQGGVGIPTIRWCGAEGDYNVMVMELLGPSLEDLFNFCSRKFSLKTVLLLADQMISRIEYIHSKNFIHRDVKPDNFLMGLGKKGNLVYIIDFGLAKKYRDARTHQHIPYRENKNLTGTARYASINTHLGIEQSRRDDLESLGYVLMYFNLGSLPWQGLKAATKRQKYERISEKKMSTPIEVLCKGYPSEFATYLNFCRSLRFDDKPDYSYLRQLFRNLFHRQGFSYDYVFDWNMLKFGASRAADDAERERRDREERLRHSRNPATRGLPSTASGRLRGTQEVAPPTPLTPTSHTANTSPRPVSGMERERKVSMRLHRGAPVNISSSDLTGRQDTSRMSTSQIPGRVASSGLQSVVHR
T15 sequence (P45983 whole entry): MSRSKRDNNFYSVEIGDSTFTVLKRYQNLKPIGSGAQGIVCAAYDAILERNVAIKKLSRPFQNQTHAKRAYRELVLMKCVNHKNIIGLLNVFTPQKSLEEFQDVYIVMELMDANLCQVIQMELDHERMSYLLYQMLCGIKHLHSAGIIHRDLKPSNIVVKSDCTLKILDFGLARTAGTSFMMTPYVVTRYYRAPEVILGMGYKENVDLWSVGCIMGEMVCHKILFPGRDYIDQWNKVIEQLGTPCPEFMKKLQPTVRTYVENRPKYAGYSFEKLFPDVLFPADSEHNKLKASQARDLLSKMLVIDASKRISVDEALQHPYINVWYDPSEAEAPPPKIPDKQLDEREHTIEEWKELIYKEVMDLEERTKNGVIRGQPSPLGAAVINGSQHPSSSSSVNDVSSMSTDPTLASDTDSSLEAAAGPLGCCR

For CCC(=O)Nc1cc(Nc2cc(NC3CC3)n3ncc(C#N)c3n2)c(F)cc1N1CCC[C@H](NC)C1 [Compound 2, (S)-N-(5-((3-cyano-7-(cyclopropylamino)pyrazolo[1,5-a]pyrimidin-5-yl)amino)-4-fluoro-2-(3-(methylamino)piperidin-1-yl)phenyl)propionamide], the receptor occupancy at 10 µM (CAMK2A) was 12.4%, the receptor occupancy at 10 µM (CDK15 + Y) was 26.5% and the receptor occupancy at 10 µM (CDK17 + Y) was 20.2%. It also gave a receptor occupancy at 10 µM (CHEK2) of -0.8%, a receptor occupancy at 10 µM (CSNK1D) of 9.4% and a receptor occupancy at 10 µM (FER) of 3.1%. For the same compound, the receptor occupancy at 10 µM (FGFR3) was -0.7%, the receptor occupancy at 10 µM (FGFR4) was 8.2% and the receptor occupancy at 10 µM (FLT3) was -13.5%. It also gave a receptor occupancy at 10 µM (HIPK2) of 21.5%, a receptor occupancy at 10 µM (ICK) of -6.1% and a receptor occupancy at 10 µM (JNK3) of 1%. For the same compound, the receptor occupancy at 10 µM (LTK) was 4.2%, the receptor occupancy at 10 µM (MAP3K2) was 13.8% and the receptor occupancy at 10 µM (MAPK8) was 0.6%. The receptor occupancy at 10 µM (MKNK2) was 23.6%, the receptor occupancy at 10 µM (MYLK3) was 0.4% and the receptor occupancy at 10 µM (NEK4) was 7.8%. For the same compound, the receptor occupancy at 10 µM (NEK9) was 1%, the receptor occupancy at 10 µM (NTRK1v1) was 4.6% and the receptor occupancy at 10 µM (NTRK2) was -0.1%. For the same compound, the receptor occupancy at 10 µM (NUAK1) was -1.7%, the receptor occupancy at 10 µM (PHKG1; HEK293, PHKG1) was 55.3% and the “% occupancy at 10 μM” value (PHKG1; PHKG1, HEK293) was 55%. For the same compound, the receptor occupancy at 10 µM (PRKAA1) was 3.8%, the receptor occupancy at 10 µM (SGK1) was 1.5% and the receptor occupancy at 10 µM (SIK1) was 6.4%. It also gave a receptor occupancy at 10 µM (SIK3) of 2.7% and a receptor occupancy at 10 µM (TNK2) of 12.5%.
